Test results from patent US9511134B2, “Inducing immune responses to influenza virus using polypeptide and nucleic acid compositions” (priority 2006, dated 2016).
Read-outs that look alike come from different tables or passages of the source. Where no end group is shown, it is not given here.

Columns and labels:
DRB1*0301 = biological target: T1, DRB1*0301 (Homo sapiens, UniProt P01903+P01911, A100K/A102G/A103R/A169T/F55Y/I96L/K41T/L162R/M171V/P40S/Q125H/Q178H/Q39Y/R42S/S66N/T106N/T262R/W38E/Y61H); test: biochemical; format: binding
T1 construct: made in house; host or cells: EBV-transformed homozygous human B cell lines, transfected fibroblasts or single-allele 721.221 transfectants

DRB1*1501 = biological target: T2, DRB1*1501 (Homo sapiens, UniProt P01903+P01911); test: biochemical; format: binding; details: read-out: IC50 nM to purified HLA DRB1*1501
T2 construct: made in house; host or cells: EBV-transformed homozygous human B cell lines, transfected fibroblasts or single-allele 721.221 transfectants

DRB4*0101 = biological target: T3, DRB4*0101 (Homo sapiens, UniProt P01903+P13762, G164S); test: biochemical; format: binding
T3 construct: made in house; host or cells: EBV-transformed homozygous human B cell lines, transfected fibroblasts or single-allele 721.221 transfectants

DRB1*0101 = biological target: T4, DRB1*0101 (Homo sapiens, UniProt P01903+P01911, A100R/D57E/F55L/F60I/F76Y/I96L/L162R/M171V/P40L/Q125E/R42F/V115G/Y59C); test: biochemical; format: binding
T4 construct: made in house; host or cells: EBV-transformed homozygous human B cell lines, transfected fibroblasts or single-allele 721.221 transfectants

DRB1*0401 = biological target: T5, DRB1*0401 (Homo sapiens, UniProt P01903+P01911, A100K/A169T/F76Y/I96L/K127E/L162R/M171V/N62H/P40V/Q125Y/R42H/S133A/S149N/S66Y/V115G/V209L/W38E); test: biochemical; format: binding; details: read-out: IC50 nM to purified HLA DRB1*0401
T5 construct: made in house; host or cells: EBV-transformed homozygous human B cell lines, transfected fibroblasts or single-allele 721.221 transfectants

DRB1*1302 = DRB1*1302 (Homo sapiens, UniProt P01903+P01911, A100E/A169T/K41T/L162R/M171V/P40S/Q125H/Q178H/Q39Y/Q99D/R42S/S66N/T262R/V115G/W38E/Y61H); test: biochemical; format: binding; details: read-out: IC50 nM to purified HLA DRB1*1302
CD4+ PBMC = format: cell-based, human
DRB1*0404 = DRB1*0404 (Homo sapiens, UniProt P01903+P01911, A100R/A169T/F76Y/I96L/K127E/L162R/M171V/N62H/P40V/Q125Y/R42H/S133A/S149N/S66Y/V209L/W38E); test: biochemical; format: binding; details: IC50 nM to purified HLA DRB1*0404
[1] = IC50 nM to purified HLA DRB4*0101
[2] = IC50 nM to purified HLA DRB1*0101
[3] = IC50 nM to purified HLA DRB1*0101, Table 4
[4] = IC50 nM to purified HLA DRB4*0101, Table 4
[5] = IFNγ ELISPOT, five day expansion with peptide pool, CD8-depleted

Chain of DRB1*1302 (P01903 26-254 limits assumed, other chains not shown): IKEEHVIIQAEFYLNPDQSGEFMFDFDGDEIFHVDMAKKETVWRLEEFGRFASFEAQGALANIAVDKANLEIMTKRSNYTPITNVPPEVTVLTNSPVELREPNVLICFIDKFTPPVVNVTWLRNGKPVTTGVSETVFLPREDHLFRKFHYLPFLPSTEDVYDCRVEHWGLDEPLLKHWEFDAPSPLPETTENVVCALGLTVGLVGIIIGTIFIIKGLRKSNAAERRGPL
T1 sequence (P01903 26-254, other chains not shown): as the sequence (P01903 26-254 limits assumed, other chains not shown) above

Molecule | IC50 (DRB1*1501) [nM] | IC50 (DRB4*0101; [1]) [nM] | IC50 (DRB1*0101; [2]) [nM] | IC50 (DRB1*0401) [nM] | IC50 (DRB1*1302) [nM] | also measured
CC[C@H](C)[C@H](NC(=O)[C@H](CS)NC(=O)[C@@H](NC(=O)[C@H](CCC(N)=O)NC(=O)[C@H](CC(=O)O)NC(=O)[C@H](CO)NC(=O)[C@H](CCCCN)NC(=O)[C@@H](NC(=O)[C@H](CC(C)C)NC(=O)[C@H](CO)NC(=O)[C@@H](N)C(C)C)C(C)C)[C@@H](C)CC)C(=O)NCC(=O)N[C@@H](Cc1ccc(O)cc1)C(=O)N[C@@H](Cc1c[nH]cn1)C(=O)N[C@@H](C)C(=O)O [Flu.HA.11] | 14500 | 32 | – | – | – | IC50 (DRB1*0301): 511 nM
CC(C)C[C@H](NC(=O)CNC(=O)[C@@H](NC(=O)[C@H](C)NC(=O)[C@H](CC(C)C)NC(=O)[C@@H](NC(=O)[C@H](CC(C)C)NC(=O)[C@H](CCCNC(=N)N)NC(=O)[C@H](CC(N)=O)NC(=O)[C@H](CO)NC(=O)[C@H](CCCCN)NC(=O)[C@@H](NC(=O)[C@H](Cc1ccc(O)cc1)NC(=O)[C@H](CCCCN)NC(=O)[C@@H]1CCCN1C(=O)[C@@H](N)CS)C(C)C)C(C)C)[C@@H](C)O)C(=O)O [Flu.HA.318] | 230 | 287 | 2760 | 868 | 48 | IC50 (DRB1*0301): 2920 nM
CC[C@H](C)[C@H](N)C(=O)N[C@@H](Cc1ccc(O)cc1)C(=O)N[C@@H](CCC(N)=O)C(=O)N[C@H](C(=O)N[C@@H](CC(C)C)C(=O)N[C@@H](CO)C(=O)N[C@H](C(=O)N[C@@H](Cc1ccc(O)cc1)C(=O)N[C@@H](CO)C(=O)N[C@H](C(=O)N[C@H](C(=O)N[C@@H](C)C(=O)N[C@@H](CO)C(=O)N[C@@H](CO)C(=O)N[C@@H](CC(C)C)C(=O)N[C@@H](C)C(=O)O)C(C)C)[C@@H](C)O)[C@@H](C)CC)[C@@H](C)CC [Flu.HA.529] | 4.7 | 18 | 55 | 89 | 13 | IC50 (DRB1*0101; [3]): 55 nM; IC50 (DRB1*0401; Table 4): 89 nM; IC50 (DRB1*1501; Table 4): 4.7 nM; IC50 (DRB4*0101; [4]): 18 nM
CC[C@H](C)[C@H](N)C(=O)N[C@@H](CC(C)C)C(=O)N[C@@H](CO)C(=O)N[C@H](C(=O)N[C@@H](Cc1ccc(O)cc1)C(=O)N[C@@H](CO)C(=O)N[C@H](C(=O)N[C@H](C(=O)N[C@@H](C)C(=O)N[C@@H](CO)C(=O)N[C@@H](CO)C(=O)N[C@@H](CC(C)C)C(=O)N[C@@H](C)C(=O)N[C@@H](CC(C)C)C(=O)N[C@@H](C)C(=O)N[C@H](C(=O)O)[C@@H](C)CC)C(C)C)[C@@H](C)O)[C@@H](C)CC [Flu.HA.532] | 20 | 824 | 11 | 91 | 7.6 | IC50 (DRB1*0101; [3]): 11 nM; IC50 (DRB1*0401; Table 4): 91 nM; IC50 (DRB1*1501; Table 4): 20 nM; IC50 (DRB4*0101; [4]): 824 nM
CC[C@H](C)[C@H](NC(=O)[C@@H]1CCCN1C(=O)[C@H](CCCNC(=N)N)NC(=O)[C@@H](NC(=O)[C@H](CCCCN)NC(=O)[C@H](CC(C)C)NC(=O)[C@H](Cc1c[nH]c2ccccc12)NC(=O)[C@H](CCC(=O)O)NC(=O)[C@H](CCSC)NC(=O)[C@H](CC(C)C)NC(=O)[C@H](C)NC(=O)[C@@H](N)CCC(=O)O)[C@@H](C)O)C(=O)N[C@@H](CC(C)C)C(=O)N[C@@H](CO)C(=O)N1CCC[C@H]1C(=O)O [Flu.M1.43] | 18 | 5510 | 9.5 | – | 380 | –
CC[C@H](C)[C@H](NC(=O)CNC(=O)[C@@H](N)CCCCN)C(=O)N[C@@H](CC(C)C)C(=O)NCC(=O)N[C@@H](Cc1ccccc1)C(=O)N[C@H](C(=O)N[C@@H](Cc1ccccc1)C(=O)N[C@H](C(=O)N[C@@H](CC(C)C)C(=O)N[C@H](C(=O)N[C@H](C(=O)N1CCC[C@H]1C(=O)N[C@@H](CO)C(=O)N[C@@H](CCC(=O)O)C(=O)O)C(C)C)[C@@H](C)O)[C@@H](C)O)C(C)C [Flu.M1.60] | – | – | – | – | – | Human influenza epitope-specific immune response, donor 753 (CD4+ PBMC): Positive (key: Positive: Donors were considered positive for a peptide if the number of spots was over 3 times background as determined by responses to irrelevant peptides (non influenza)); Human influenza epitope-specific immune response, donor 6018 (CD4+ PBMC): Positive (key: Positive: Donors were considered positive for a peptide if the number of spots was over 3 times background as determined by responses to irrelevant peptides (non influenza)); Human influenza epitope-specific immune response, donor AC02 (CD4+ PBMC): Positive (key: Positive: Donors were considered positive for a peptide if the number of spots was over 3 times background as determined by responses to irrelevant peptides (non influenza)); Human influenza epitope-specific immune response, donor AC08 (CD4+ PBMC): Positive (key: Positive: Donors were considered positive for a peptide if the number of spots was over 3 times background as determined by responses to irrelevant peptides (non influenza))
CC[C@H](C)[C@H](NC(=O)[C@H](CCC(=O)O)NC(=O)[C@H](CCCNC(=N)N)NC(=O)[C@H](CCCCN)NC(=O)[C@H](CC(C)C)NC(=O)[C@H](CCCCN)NC(=O)[C@H](CCCNC(=N)N)NC(=O)[C@@H](N)Cc1ccc(O)cc1)C(=O)N[C@H](C(=O)N[C@@H](Cc1ccccc1)C(=O)N[C@@H](Cc1c[nH]cn1)C(=O)NCC(=O)N[C@@H](C)C(=O)N[C@@H](CCCCN)C(=O)N[C@@H](CCC(=O)O)C(=O)O)[C@@H](C)O [Flu.M1.103] | – | – | – | – | – | Human influenza epitope-specific immune response, donor 716 (CD4+ PBMC; [5]): Positive (Donors were considered positive for a peptide if the number of spots was over 3 times background as determined by responses to irrelevant peptides (non influenza)); Human influenza epitope-specific immune response, donor AC08 (CD4+ PBMC; [5]): Positive (Donors were considered positive for a peptide if the number of spots was over 3 times background as determined by responses to irrelevant peptides (non influenza))
CC[C@H](C)[C@H](NC(=O)[C@H](CCCNC(=N)N)NC(=O)[C@@H](NC(=O)[C@H](CO)NC(=O)[C@H](CC(N)=O)NC(=O)[C@H](CC(=O)O)NC(=O)[C@H](CCCCN)NC(=O)[C@H](CO)NC(=O)[C@H](Cc1ccc(O)cc1)NC(=O)[C@@H](NC(=O)[C@H](C)NC(=O)[C@@H](N)Cc1c[nH]c2ccccc12)C(C)C)[C@@H](C)CC)C(=O)NCC(=O)N[C@@H](CO)C(=O)N[C@@H](CCCCN)C(=O)O [Flu.NA.77] | 642 | 19500 | 5400 | 1600 | 36 | –
CC[C@H](C)[C@H](NC(=O)[C@H](CCC(N)=O)NC(=O)[C@H](Cc1ccc(O)cc1)NC(=O)[C@H](CCC(=O)O)NC(=O)[C@H](CC(C)C)NC(=O)[C@@H](N)CC(N)=O)C(=O)NCC(=O)N[C@@H](Cc1ccc(O)cc1)C(=O)N[C@H](C(=O)N[C@@H](CS)C(=O)N[C@@H](CO)C(=O)NCC(=O)N[C@H](C(=O)N[C@@H](Cc1ccccc1)C(=O)NCC(=O)O)C(C)C)[C@@H](C)CC [Flu.NA.289] | 13 | 354 | 1130 | 975 | 41 | –
CC[C@H](C)[C@H](NC(=O)[C@@H](N)CC(=O)O)C(=O)N[C@@H](CC(C)C)C(=O)N[C@@H](CCSC)C(=O)N[C@@H](CCCNC(=N)N)C(=O)N[C@@H](CCSC)C(=O)N[C@@H](CO)C(=O)N[C@@H](CCCCN)C(=O)N[C@@H](CCSC)C(=O)N[C@@H](CCC(N)=O)C(=O)N[C@@H](CC(C)C)C(=O)NCC(=O)N[C@@H](CO)C(=O)N[C@@H](CO)C(=O)N[C@@H](CO)C(=O)O [Flu.NS2.87] | 748 | 11 | 2140 | 717 | 423 | –
CSCC[C@H](NC(=O)[C@H](CCCNC(=N)N)NC(=O)[C@H](CCSC)NC(=O)[C@@H](N)C(C)C)C(=O)NCC(=O)N[C@@H](CC(=O)O)C(=O)N[C@@H](CC(C)C)C(=O)N[C@@H](Cc1c[nH]cn1)C(=O)N[C@@H](CO)C(=O)N[C@@H](CC(C)C)C(=O)N[C@@H](CCC(N)=O)C(=O)N[C@@H](CC(N)=O)C(=O)N[C@@H](CCCNC(=N)N)C(=O)N[C@@H](CC(N)=O)C(=O)NCC(=O)O [Flu.NS2.125] | 372 | 8820 | 249 | 448 | 1370 | –
CC[C@H](C)[C@H](NC(=O)CNC(=O)[C@H](CO)NC(=O)[C@@H](NC(=O)CNC(=O)[C@H](Cc1ccccc1)NC(=O)[C@H](CO)NC(=O)[C@@H]1CCCN1C(=O)[C@@H](N)CC(C)C)C(C)C)C(=O)N[C@@H](CC(N)=O)C(=O)N[C@@H](CCC(=O)O)C(=O)N[C@@H](CO)C(=O)N[C@@H](C)C(=O)N[C@@H](CC(=O)O)C(=O)N[C@@H](CCSC)C(=O)O [Flu.PB1.512] | – | 48 | – | 44 | – | IC50 (DRB1*0404): 39 nM
ISGVKLESIGIYQILSI [Flu.HA.519] | 9.2 | 16 | – | 3110 | 408 | –
